Laboratory results published in patent US20130158362A1 (INFACARE PHARMACEUTICAL CORPORATION, priority 2011, published 2013).
Several values for one entry are separate records, joined by “and”; a condition that tells them apart may be missing. Equal entries are not always repeated. Entries after “also recorded” stand apart in the source; their conditions may differ. Marks after values point to notes of the source that are not given here.

Experiments:
[1] = system: term and late preterm subjects with hyperbilirubinemia; assay: Phase 2b trial: hematology and chemistry laboratory tests (platelet counts); assay type: in vivo, human; settings: for Platelet counts (mean), Delta: baseline to 48 hours
From the text: (§1) Safety measurements included adverse events (AEs), hematology and chemistry laboratory tests, vital sign measurements, physical examinations, dermatological assessments, hearing assessments, ophthalmological assessments, neurological assessments, and quantitative electrocardiograms (ECGs).
(§2) All other safety endpoints (vital sign measurements, hematology and chemistry laboratory tests, physical examination results, ECG results, etc.) were summarized by treatment group and visit. In addition, shift tables were generated for laboratory results comparing postbaseline results with baseline. Similar shift tables were generated for results of vital sign measurements.

heme oxygenase = settings: cited from earlier work
[2] = system: term and late preterm subjects with hyperbilirubinemia; assay: Phase 2b trial: vital signs, physical, neurological, audiology and ophthalmological examinations; assay type: in vivo, human
From the text: as §1, §2

[3] = Phase 2b trial: pharmacokinetics of stannsoporfin in plasma after IM injection; assay type: in vivo, human
From the text: Pharmacokinetic Assessments: Subjects were stratified into 2 groups having different sampling times to better characterize the PK curves.

[4] = system: term and late preterm subjects with hyperbilirubinemia; assay: Phase 2b trial: need for phototherapy/exchange transfusion, time to PT, duration of PT, time to hospital discharge; assay type: in vivo, human; settings: for Time to discharge, Mean: from treatment; for Time to PT (range): subjects who needed PT
Experimental: PT was standardized for this study. TSB levels were initially assessed at 6 hours after IM injection to determine if PT was necessary. If the subject met the AAP Guidelines for starting PT, PT was initiated, and if the criteria were not met at the time, the subjects continued in the study until the next TSB level assessment (at 12, 24, and 48 hours following IMP injection). If, at any of these time points, the subject met the criteria for initiation of PT per AAP Guidelines, then PT was started.
In subjects receiving PT, determinations to assess whether or not PT was still required were done every 6 hours (±15 min); if the TSB was declining over 2 of these 6 hour assessments, TSB assessments could be done every 12 hours (±15 min). PT was stopped after 1 declining TSB assessment had been reviewed and the TSB level had declined to at least 2 mg/dL below the threshold for PT (as determined by the age of the subject when the blood was collected). As part of the clinical management of the subject, once PT was stopped, a TSB assessment was performed at approximately 6 hours later to assure there was no rebound in the bilirubin level. If the TSB rebounded above the threshold for PT, further clinical management was at the discretion of the principal investigator. After completion of Visit 4 (Day 30), parents/guardians were asked to enroll the completed subjects into a long term safety follow-up study.
The Secondary Efficacy Endpoints were the change from baseline in unadjusted TSB at 48 hours after treatment, change from baseline in adjusted and unadjusted TSB at various other time points after treatment, percent change from baseline in unadjusted TSB, proportion of subjects who require PT/exchange transfusion (ET), time to PT/ET, duration of PT and time to hospital discharge.
Analysis of Efficacy Parameters: The primary efficacy analysis applied the analysis of covariance (ANCOVA) method to determine if there was a significant difference between treatment groups in change in adjusted TSB levels from baseline to 48 hours post baseline after controlling for the effects of gestational age and adjusted baseline TSB levels. If assumptions of ANCOVA appeared to be violated, a Wilcoxon rank-sum test could be performed instead. Time-to-event variables were analyzed using the Kaplan-Meier method, and Kaplan-Meier survival curves were presented.

[5] = 4.5 mg dose, baseline to 48 hours post dose

tin IV mesoporphyrin IX dichloride [Stannsoporfin]
Platelet counts (mean) ([1]; 1.5 mg/kg IM, 48 hours): 234.000 | Platelet counts (mean) ([1]; 1.5 mg/kg IM, Day 14): 477,000 | Platelet counts (mean), Delta ([1]; 1.5 mg/kg IM): −31,000 | Platelet counts (mean) ([1]; 3.0 mg/kg IM, 48 hours): 220,000 | Platelet counts (mean) ([1]; 3.0 mg/kg IM, Day 14): 453,000 | Platelet counts (mean), Delta ([1]; 3.0 mg/kg IM): −43,000 | Platelet count, individual subjects, % Change [1, 5]: 68.6% and 47.1% and 60.8% and 2.9% and 8.4% and 41.0% | Platelet count, individual subjects, Delta [1, 5]: −153,000 and −113,000 and −141,000 and −11,000 and −22,000 and −128,000 | Platelet counts (mean) ([1]; 4.5 mg/kg IM, 48 hours): 180,000 | Platelet counts (mean) ([1]; 4.5 mg/kg IM, Day 14): 441,000 | Platelet counts (mean), Delta ([1]; 4.5 mg/kg IM): −85,000 | Platelet count, individual subjects ([1]; 4.5 mg/kg dose, 48 hours post dose (n = 6)): 70,000* and 127,000† and 91,000** and 368,000 and 240,000 and 184,000† | platelets at 48 hours ([1]; 4.5 mg/kg, all subjects, normalized by Day 14): moderate drops in platelets | Chemistries, liver function tests and renal function tests ([1]; 1.5 to 4.5 mg/kg IM): normal | Platelet counts from baseline to 48 hours after administration ([1]; all stannsoporfin doses, placebo remained stable): decreased | average platelet counts by day 14 ([1]; all test groups): returned to the normal range | inhibition of heme oxygenase (heme oxygenase): potent competitive inhibitor | effect on vital signs (blood pressure, pulse, respiratory rate, temperature) ([2]; 1.5 to 4.5 mg/kg IM, preliminary data): no effect | mean pulse ([2]; 45 minutes after treatment, no longer observed at 1.5 hours): decrease in mean pulse | audiology examinations ([2]; screening, 48 hours after treatment/hospital discharge, or early termination, all subjects): normal | T1/2 ([3]; 1.5 mg/kg IM): 5.46 h | Tmax ([3]; 1.5 mg/kg IM): 1.87 h | T1/2 ([3]; 3.0 mg/kg IM): 10.7 h | Tmax ([3]; 3.0 mg/kg IM): 1.52 h | T1/2 ([3]; 4.5 mg/kg IM): 9.86 h | Tmax ([3]; 4.5 mg/kg IM): 2.3 h | T1/2, Mean of the three doses ([3]; 1.5, 3.0 and 4.5 mg/kg IM): 8.6 h | Tmax, Mean of the three doses ([3]; 1.5, 3.0 and 4.5 mg/kg IM): 1.89 h | increase in Cmax with dose ([3]; 1.5 to 4.5 mg/kg dose range): dose-proportional increase | elimination half-life ([3]; IM injection, final data): approximately 10 hours | time of peak plasma concentrations post-treatment ([3]; IM injection, final data): ≤ 1 h | time plasma stannsoporfin concentrations measurable post treatment ([3]; all subjects at doses of 3 mg/kg and above): at least 48 hours | intersubject variability in Cmax and AUCs ([3]; neonates, IM): ≤ 30% | maximum duration of PT ([4]; 1.5 mg/kg): 1426 min | Duration of PT ([4]; 1.5 mg/kg IM): about 20 hours | Time to discharge, Range ([4]; 1.5 mg/kg IM): 14.6 to 143.3 h | subjects who received/required phototherapy (PT), n (%) ([4]; 1.5 mg/kg IM, N = 17): 3 (17.6%) | Time to discharge, Mean ([4]; 1.5 mg/kg IM): 38 h | Time to PT (range) ([4]; 1.5 mg/kg IM): 5.2 to 17.8 h | maximum duration of PT ([4]; 3 mg/kg): 1140 min | Duration of PT ([4]; 3.0 mg/kg IM): about 14 hours | Time to discharge, Range ([4]; 3.0 mg/kg IM): 11.5 to 77.0 h | subjects who received/required phototherapy (PT), n (%) ([4]; 3.0 mg/kg IM, N = 18): 6 (33.3%) | Time to discharge, Mean ([4]; 3.0 mg/kg IM): 42.8 h | Time to PT (range) ([4]; 3.0 mg/kg IM): 7.2 to 15.2 h | maximum duration of PT ([4]; 4.5 mg/kg): 990 min | Duration of PT ([4]; 4.5 mg/kg IM): about 14 hours | Time to discharge, Range ([4]; 4.5 mg/kg IM): 15 to 405.3 h | subjects who received/required phototherapy (PT), n (%) ([4]; 4.5 mg/kg IM, N = 8): 2 (25%) | Time to discharge, Mean ([4]; 4.5 mg/kg IM): 48.3 h | Time to PT (range) ([4]; 4.5 mg/kg IM): 7.3 to 8.8 h | time to hospital discharge compared to placebo ([4]; 4.5 mg/kg, largely due to 1 subject with meningitis): significantly greater | exchange transfusions (ET) required ([4]; all dose groups): no exchange transfusions; also recorded: no subjects requiring ET | readmission to hospital ([4]; all stannsoporfin dose groups): No subjects who received stannsoporfin were readmitted | treated infants requiring subsequent phototherapy ([4]; single 1.5 mg/kg dose): 17.6%
